In US20230203043A1, “NOVEL IMIDAZOPYRAZINE DERIVATIVES” (Hoffmann-La Roche Inc., priority 2020, published 2023):
Structures can show the parent of a compound that is named as a salt.

Tested on: Acinetobacter baumannii ATCC17961
Test: Antimicrobial susceptibility testing: 90% growth inhibitory concentration (IC90) determination in Iso-Sensitest broth, OD600 growth
Assay type: cell-based
Conditions: Acinetobacter baumannii, ATCC17961, 16 h, read-out: A. baumannii ATCC 17961 IC90 (uM), strain ATCC 17961, OD600 growth over 16 h
Summary of the method: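 Each strain, at about 5×10^(5) CFU/ml, was incubated with twofold dilutions of compound at 35±2° C for 16 h, and IC90 was calculated from kinetic optical density measured at 600 nm during logarithmic growth.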

Structure (SMILES)	IC90
CCc1cc(Nc2nccn3c(-c4c[nH]nc4C(F)(F)F)cnc23)ccc1C(=O)NCCNC(=O)[C@@H](N)CNC(=N)N [Example 213, N-[2-[[(2S)-2-amino-3-carbamimidamidopropanoyl]amino]ethyl]-2-ethyl-4-[[3-[3-(trifluoromethyl)-1H-pyrazol-4-yl]imidazo[1,2-a]pyrazin-8-yl]amino]benzamide formate]	0.378 µM
CCc1cc(Nc2nccn3c(-c4c[nH]nc4C(F)(F)F)cnc23)ccc1C(=O)NCCCNC(=O)CCCN [Example 215, N-[3-(4-aminobutanoylamino)propyl]-2-ethyl-4-[[3-[3-(trifluoromethyl)-1H-pyrazol-4-yl]imidazo[1,2-a]pyrazin-8-yl]amino]benzamide formate]	0.394 µM
CCc1cc(Nc2nccn3c(-c4c[nH]nc4C(F)(F)F)cnc23)ccc1C(=O)NCCNC(=O)CCCN [Example 217, N-[2-(4-aminobutanoylamino)ethyl]-2-ethyl-4-[[3-[3-(trifluoromethyl)-1H-pyrazol-4-yl]imidazo[1,2-a]pyrazin-8-yl]amino]benzamide formate]	0.543 µM
CCc1cc(Nc2nccn3c(-c4c[nH]nc4C(F)(F)F)cnc23)ccc1C(=O)NCCNC(=O)NCCN [Example 218, N-[2-(2-aminoethylcarbamoylamino)ethyl]-2-ethyl-4-[[3-[3-(trifluoromethyl)-1H-pyrazol-4-yl]imidazo[1,2-a]pyrazin-8-yl]amino]benzamide formate]	0.574 µM
CCc1cc(Nc2nccn3c(-c4cn(CC#N)nc4C(F)(F)F)cnc23)ccc1C(=O)N1CCC(O)(CNC)CC1 [Example 219, 2-[4-[8-[3-ethyl-4-[4-hydroxy-4-(methylaminomethyl)piperidine-1-carbonyl]anilino]imidazo[1,2-a]pyrazin-3-yl]-3-(trifluoromethyl)pyrazol-1-yl]acetonitrile formate]	0.599 µM
CCc1cc(Nc2nccn3c(-c4c[nH]nc4C(F)(F)F)cnc23)ccc1C(=O)NCCNC(=O)CCN [Example 220, N-[2-(3-aminopropanoylamino)ethyl]-2-ethyl-4-[[3-[3-(trifluoromethyl)-1H-pyrazol-4-yl]imidazo[1,2-a]pyrazin-8-yl]amino]benzamide formate]	0.51 µM
CCc1cc(Nc2nccn3c(-c4c[nH]nc4C(F)(F)F)cnc23)ccc1C(=O)NCCNC(=O)[C@@H](N)CCCCN [Example 221, N-[2-[[(2S)-2,6-diaminohexanoyl]amino]ethyl]-2-ethyl-4-[[3-[3-(trifluoromethyl)-1H-pyrazol-4-yl]imidazo[1,2-a]pyrazin-8-yl]amino]benzamide formate]	0.922 µM
NCCNC(=O)NCCNC(=O)c1ccc(Nc2nccn3c(-c4c[nH]nc4C(F)(F)F)cnc23)cc1Cl [Example 222, N-[2-(2-aminoethylcarbamoylamino)ethyl]-2-chloro-4-[[3-[3-(trifluoromethyl)-1H-pyrazol-4-yl]imidazo[1,2-a]pyrazin-8-yl]amino]benzamide formate]	1.09 µM
NCCCC[C@H](N)C(=O)NCCNC(=O)c1ccc(Nc2nccn3c(-c4c[nH]nc4C(F)(F)F)cnc23)cc1Cl [Example 224, 2-chloro-N-[2-[[(2S)-2,6-diaminohexanoyl]amino]ethyl]-4-[[3-[3-(trifluoromethyl)-1H-pyrazol-4-yl]imidazo[1,2-a]pyrazin-8-yl]amino]benzamide formate]	1.5 µM
N[C@H]1C[C@H]1C(=O)N1CCN(C(=O)c2ccc(Nc3nccn4c(-c5c[nH]nc5C(F)(F)F)cnc34)cc2Cl)CC1 [Example 225, [4-[(1R,2S)-2-aminocyclopropanecarbonyl]piperazin-1-yl]-[2-chloro-4-[[3-[3-(trifluoromethyl)-1H-pyrazol-4-yl]imidazo[1,2-a]pyrazin-8-yl]amino]phenyl] methanone formate]	1.81 µM
CCc1cc(Nc2nccn3c(-c4cn(CC#N)nc4C(F)(F)F)cnc23)ccc1C(=O)NOCCN [Example 228, N-(2-aminoethoxy)-4-[[3-[1-(cyanomethyl)-3-(trifluoromethyl)pyrazol-4-yl]imidazo[1,2-a]pyrazin-8-yl]amino]-2-ethylbenzamide formate]	0.409 µM
CCc1cc(Nc2nccn3c(-c4c[nH]nc4C(F)(F)F)cnc23)ccc1C(=O)NCCN [Example 229, N-(2-aminoethyl)-2-ethyl-4-[[3-[3-(trifluoromethyl)-1H-pyrazol-4-yl]imidazo[1,2-a]pyrazin-8-yl]amino]benzamide formate]	1.1 µM
C#CC(C)n1cc(-c2cnc3c(Nc4ccc(C(=O)NCCOCCN)c(CC)c4)nccn23)c(C(F)(F)F)n1 (stereo not drawn) [Example 232, N-[2-(2-aminoethoxy)ethyl]-4-[[3-[1-but-3-yn-2-yl-3-(trifluoromethyl)pyrazol-4-yl]imidazo[1,2-a]pyrazin-8-yl]amino]-2-ethylbenzamide formate]	0.124 µM
CCc1cc(Nc2nccn3c(-c4cn(C5COC5)nc4C(F)(F)F)cnc23)ccc1C(=O)NCCOCCN [Example 241, N-[2-(2-aminoethoxy)ethyl]-2-ethyl-4-[[3-[1-(oxetan-3-yl)-3-(trifluoromethyl)pyrazol-4-yl]imidazo[1,2-a]pyrazin-8-yl]amino]benzamide formate]	0.322 µM

Same assay, conditions: Acinetobacter baumannii, ATCC17961, 16 h, strain ATCC 17961, OD600 growth over 16 h, read-out: A. baumannii ATCC 17961 IC90

Structure (SMILES)	IC90
CCOCCCNC(=O)c1ccc(Nc2nccn3c(-c4c[nH]nc4C(F)(F)F)cnc23)cc1CC [Example 223, N-(3-ethoxypropyl)-2-ethyl-4-[[3-[3-(trifluoromethyl)-1H-pyrazol-4-yl]imidazo[1,2-a]pyrazin-8-yl]amino]benzamide]	1.12 µM
N#CCn1cc(-c2cnc3c(Nc4ccc(C(=O)N5CCNCC5)c(Cl)c4)nccn23)c(C(F)(F)F)n1 [Example 226, 2-[4-[8-[3-chloro-4-(piperazine-1-carbonyl)anilino]imidazo[1,2-a]pyrazin-3-yl]-3-(trifluoromethyl)pyrazol-1-yl]acetonitrile]	0.088 µM
CCc1cc(Nc2nccn3c(-c4cn(CC#N)nc4C(F)(F)F)cnc23)ccc1C(=O)NCCCCCCN [Example 227, N-(6-aminohexyl)-4-[[3-[1-(cyanomethyl)-3-(trifluoromethyl)pyrazol-4-yl]imidazo[1,2-a]pyrazin-8-yl]amino]-2-ethylbenzamide]	0.17 µM
CCNC(=O)c1ccc(Nc2nccn3c(-c4cn(CC#N)nc4C(F)(F)F)cnc23)cc1Cl [Example 230, 2-chloro-4-[[3-[1-(cyanomethyl)-3-(trifluoromethyl)pyrazol-4-yl]imidazo[1,2-a]pyrazin-8-yl]amino]-N-ethylbenzamide]	0.091 µM
N#CCNC(=O)c1ccc(Nc2nccn3c(-c4cn(CC#N)nc4C(F)(F)F)cnc23)cc1Cl [Example 231, 2-chloro-N-(cyanomethyl)-4-[[3-[1-(cyanomethyl)-3-(trifluoromethyl)pyrazol-4-yl]imidazo[1,2-a]pyrazin-8-yl]amino]benzamide]	0.102 µM
N#CCn1cc(-c2cnc3c(Nc4ccc(C(=O)N5CC(O)C5)c(Cl)c4)nccn23)c(C(F)(F)F)n1 [Example 236, 2-[4-[8-[3-chloro-4-(3-hydroxyazetidine-1-carbonyl)anilino]imidazo[1,2-a]pyrazin-3-yl]-3-(trifluoromethyl)pyrazol-1-yl]acetonitrile]	0.193 µM

Same assay, conditions: strain ATCC 17961, OD600 growth over 16 h, read-out: A. baumannii ATCC 17961 IC90

Structure (SMILES)	IC90
N#CCn1cc(-c2cnc3c(Nc4ccc(C(=O)N5CCN(C(=O)NC6CNC6)CC5)c(Cl)c4)nccn23)c(C(F)(F)F)n1 [Example 214, N-(azetidin-3-yl)-4-[2-chloro-4-[[3-[1-(cyanomethyl)-3-(trifluoromethyl)pyrazol-4-yl]imidazo[1,2-a]pyrazin-8-yl]amino]benzoyl] piperazine-1-carboxamide formate]	0.349 µM
N[C@@H]1CC[C@H](NC(=O)N2CCN(C(=O)c3ccc(Nc4nccn5c(-c6c[nH]nc6C(F)(F)F)cnc45)cc3Cl)CC2)C1 [Example 233, N-[(1S,3R)-3-aminocyclopentyl]-4-[2-chloro-4-[[3-[3-(trifluoromethyl)-1H-pyrazol-4-yl]imidazo[1,2-a]pyrazin-8-yl]amino]benzoyl] piperazine-1-carboxamide formate]	0.169 µM
N#CCn1cc(-c2cnc3c(Nc4ccc(C(=O)NCCO)c(Cl)c4)nccn23)c(C(F)(F)F)n1 [Example 234, 2-chloro-4-[[3-[1-(cyanomethyl)-3-(trifluoromethyl)pyrazol-4-yl]imidazo[1,2-a]pyrazin-8-yl]amino]-N-(2-hydroxyethyl) benzamide]	0.189 µM
C[C@@H](O)CNC(=O)c1ccc(Nc2nccn3c(-c4cn(CC#N)nc4C(F)(F)F)cnc23)cc1Cl [Example 237, 2-chloro-4-[[3-[1-(cyanomethyl)-3-(trifluoromethyl)pyrazol-4-yl]imidazo[1,2-a]pyrazin-8-yl]amino]-N-[(2R)-2-hydroxypropyl] benzamide]	0.196 µM
N[C@H]1CC[C@@H](NC(=O)N2CCN(C(=O)c3ccc(Nc4nccn5c(-c6c[nH]nc6C(F)(F)F)cnc45)cc3Cl)CC2)C1 [Example 238, N-[(1R,3S)-3-aminocyclopentyl]-4-[2-chloro-4-[[3-[3-(trifluoromethyl)-1H-pyrazol-4-yl]imidazo[1,2-a]pyrazin-8-yl]amino]benzoyl] piperazine-1-carboxamide formate]	0.2 µM
COCCNC(=O)c1ccc(Nc2nccn3c(-c4cn(CC#N)nc4C(F)(F)F)cnc23)cc1Cl [Example 239, 2-chloro-4-[[3-[1-(cyanomethyl)-3-(trifluoromethyl)pyrazol-4-yl]imidazo[1,2-a]pyrazin-8-yl]amino]-N-(2-methoxyethyl) benzamide]	0.211 µM
C[C@H](O)CNC(=O)c1ccc(Nc2nccn3c(-c4cn(CC#N)nc4C(F)(F)F)cnc23)cc1Cl [Example 240, 2-chloro-4-[[3-[1-(cyanomethyl)-3-(trifluoromethyl)pyrazol-4-yl]imidazo[1,2-a]pyrazin-8-yl]amino]-N-[(2S)-2-hydroxypropyl] benzamide]	0.253 µM
